Assay results reported in patent publication US20230346912A1 (priority 2022, published 2023).

System: spleen lymphocytes of B2 haplotype chickens infected with H9N2 AIV
Format: cell-based, chicken

AVKGIGTMV [Polypeptide P10]
immunogenicity of individual peptide (IFN-γ ELISpot): considered immunogenic

WIIRNWETV [Polypeptide P257]
immunogenicity of individual peptide (IFN-γ ELISpot): considered immunogenic

MSRDWLMLI [Polypeptide P373]
immunogenicity of individual peptide (IFN-γ ELISpot): considered immunogenic

DVSFQGRGV [Polypeptide P11]
immunogenicity of individual peptide (IFN-γ ELISpot): considered immunogenic
